Data taken from the NIST ThermoML archive (doi:10.1016/j.fluid.2004.09.013).

Conditions: for mass density: Fluid (supercritical or subcritical phases), Vibrating tube method; for vapor or sublimation pressure: Liquid

C=C(C)C [2-methylpropene]
Conditions	mass density [kg/m3]
273.23 K, 615 kPa	619.2
273.23 K, 9987 kPa	631.07
273.23 K, 15001 kPa	636.64
273.23 K, 20001 kPa	641.78
273.23 K, 25007 kPa	646.58
273.23 K, 29992 kPa	651.06
273.23 K, 34986 kPa	655.29
273.23 K, 40007 kPa	659.29
273.24 K, 5018 kPa	625.04
278.24 K, 625 kPa	613.32
278.24 K, 9983 kPa	625.79
278.24 K, 29985 kPa	646.57
278.25 K, 4992 kPa	619.43
278.25 K, 14997 kPa	631.6
278.25 K, 19994 kPa	636.96
278.25 K, 24995 kPa	641.93
278.25 K, 35001 kPa	650.96
278.25 K, 39983 kPa	655.07
283.26 K, 623 kPa	607.34
283.26 K, 4980 kPa	613.78
283.26 K, 10001 kPa	620.49
283.26 K, 15002 kPa	626.55
283.26 K, 19992 kPa	632.11
283.26 K, 24993 kPa	637.28
283.26 K, 29994 kPa	642.09
283.26 K, 34999 kPa	646.62
283.26 K, 39994 kPa	650.87
288.27 K, 622 kPa	601.26
288.27 K, 4986 kPa	608.09
288.27 K, 9999 kPa	615.12
288.27 K, 15002 kPa	621.46
288.27 K, 20000 kPa	627.26
288.27 K, 24990 kPa	632.61
288.27 K, 30003 kPa	637.6
288.27 K, 35005 kPa	642.28
288.27 K, 40002 kPa	646.66
293.28 K, 624 kPa	595.08
293.28 K, 4999 kPa	602.33
293.28 K, 9991 kPa	609.69
293.28 K, 14989 kPa	616.34
293.28 K, 19994 kPa	622.38
293.28 K, 24993 kPa	627.94
293.28 K, 30001 kPa	633.11
293.28 K, 35003 kPa	637.94
293.28 K, 39987 kPa	642.44
298.3 K, 624 kPa	588.78
298.3 K, 4988 kPa	596.46
298.3 K, 9992 kPa	604.23
298.3 K, 14991 kPa	611.17
298.3 K, 20004 kPa	617.49
298.3 K, 25009 kPa	623.26
298.3 K, 30005 kPa	628.61
298.3 K, 34998 kPa	633.59
298.3 K, 40003 kPa	638.26
303.3 K, 638 kPa	582.38
303.3 K, 14996 kPa	606.02
303.3 K, 19992 kPa	612.59
303.3 K, 24991 kPa	618.59
303.3 K, 34996 kPa	629.29
303.3 K, 39999 kPa	634.1
303.31 K, 4990 kPa	590.52
303.31 K, 9994 kPa	598.73
303.31 K, 29988 kPa	624.13
308.31 K, 706 kPa	575.94
308.32 K, 4988 kPa	584.48
308.32 K, 9989 kPa	593.14
308.32 K, 14992 kPa	600.77
308.32 K, 19998 kPa	607.63
308.32 K, 24997 kPa	613.87
308.32 K, 30005 kPa	619.62
308.32 K, 34988 kPa	624.91
308.32 K, 40003 kPa	629.89
313.2 K, 951 kPa	569.89
313.2 K, 4993 kPa	578.43
313.2 K, 9992 kPa	587.58
313.2 K, 14986 kPa	595.55
313.2 K, 19994 kPa	602.7
313.2 K, 24994 kPa	609.17
313.2 K, 29987 kPa	615.08
313.2 K, 34991 kPa	620.58
313.2 K, 40013 kPa	625.7
318.21 K, 1034 kPa	563.28
318.21 K, 4991 kPa	572.22
318.21 K, 9993 kPa	581.88
318.21 K, 15000 kPa	590.28
318.21 K, 20002 kPa	597.73
318.21 K, 24998 kPa	604.47
318.21 K, 29993 kPa	610.61
318.21 K, 34995 kPa	616.28
318.21 K, 39991 kPa	621.54
323.22 K, 1130 kPa	556.5
323.22 K, 5015 kPa	565.89
323.22 K, 10019 kPa	576.14
323.22 K, 15017 kPa	584.94
323.22 K, 20010 kPa	592.7
323.22 K, 25016 kPa	599.69
323.22 K, 30006 kPa	606.04
323.22 K, 34990 kPa	611.88
328.22 K, 1213 kPa	549.51
328.22 K, 4997 kPa	559.34
328.22 K, 10001 kPa	570.24
328.22 K, 14997 kPa	579.49
328.22 K, 19998 kPa	587.62
328.22 K, 24989 kPa	594.87
328.22 K, 29993 kPa	601.47
328.22 K, 35002 kPa	607.53
333.22 K, 1303 kPa	542.34
333.22 K, 4983 kPa	552.65
333.22 K, 9997 kPa	564.28
333.22 K, 15001 kPa	574.03
333.22 K, 19998 kPa	582.51
333.22 K, 25001 kPa	590.09
333.22 K, 30012 kPa	596.94
333.22 K, 34994 kPa	603.17
338.22 K, 1401 kPa	534.97
338.22 K, 4983 kPa	545.83
338.22 K, 9985 kPa	558.2
338.22 K, 14988 kPa	568.49
338.22 K, 20002 kPa	577.4
338.22 K, 24995 kPa	585.25
338.22 K, 30004 kPa	592.35
338.22 K, 34989 kPa	598.79
338.23 K, 39972 kPa	604.69
343.22 K, 1507 kPa	527.38
343.22 K, 4990 kPa	538.84
343.22 K, 14984 kPa	562.89
343.22 K, 19992 kPa	572.21
343.22 K, 24986 kPa	580.39
343.23 K, 10002 kPa	552.06
343.23 K, 29994 kPa	587.74
343.23 K, 35010 kPa	594.44
348.23 K, 1624 kPa	519.55
348.23 K, 4982 kPa	531.6
348.23 K, 9996 kPa	545.8
348.23 K, 15003 kPa	557.28
348.23 K, 19988 kPa	566.99
348.23 K, 24994 kPa	575.52
348.23 K, 29995 kPa	583.14
348.23 K, 34998 kPa	590.02
353.23 K, 1750 kPa	511.45
353.23 K, 4999 kPa	524.22
353.23 K, 9995 kPa	539.41
353.23 K, 15002 kPa	551.55
353.23 K, 19988 kPa	561.74
353.23 K, 24993 kPa	570.61
353.23 K, 29992 kPa	578.51
353.23 K, 35002 kPa	585.65
358.23 K, 1880 kPa	503.02
358.23 K, 4995 kPa	516.51
358.23 K, 9992 kPa	532.9
358.23 K, 14994 kPa	545.74
358.23 K, 19987 kPa	556.44
358.23 K, 25000 kPa	565.71
358.23 K, 29992 kPa	573.87
358.23 K, 34986 kPa	581.23
363.23 K, 2029 kPa	494.29
363.23 K, 4995 kPa	508.53
363.23 K, 9990 kPa	526.24
363.23 K, 14992 kPa	539.87
363.23 K, 19984 kPa	551.08
363.23 K, 25007 kPa	560.75
363.23 K, 29987 kPa	569.21
363.23 K, 34996 kPa	576.84
368.23 K, 2186 kPa	485.16
368.23 K, 4992 kPa	500.2
368.23 K, 9984 kPa	519.43
368.23 K, 14990 kPa	533.92
368.23 K, 29990 kPa	564.54
368.24 K, 19992 kPa	545.7
368.24 K, 25001 kPa	555.77
368.24 K, 35000 kPa	572.42
373.23 K, 2351 kPa	475.57
373.23 K, 29996 kPa	559.86
373.23 K, 34996 kPa	567.99
373.24 K, 4995 kPa	491.52
373.24 K, 9984 kPa	512.47
373.24 K, 14991 kPa	527.88
373.24 K, 19998 kPa	540.27
373.24 K, 25004 kPa	550.75
373.24 K, 39995 kPa	575.36
378.24 K, 2531 kPa	465.5
378.24 K, 4999 kPa	482.41
378.24 K, 9996 kPa	505.39
378.24 K, 14983 kPa	521.73
378.24 K, 19996 kPa	534.78
378.24 K, 25004 kPa	545.72
378.24 K, 29995 kPa	555.17
378.24 K, 34988 kPa	563.54
383.24 K, 2689 kPa	454.37
383.24 K, 4984 kPa	472.67
383.24 K, 9995 kPa	498.07
383.24 K, 14986 kPa	515.53
383.24 K, 20004 kPa	529.26
383.24 K, 25006 kPa	540.65
383.24 K, 29986 kPa	550.43
383.24 K, 34992 kPa	559.1
388.24 K, 2901 kPa	443.01
388.24 K, 4994 kPa	462.48
388.24 K, 9997 kPa	490.56

Conditions	vapor or sublimation pressure [kPa]
285.97 K	206.58
297.46 K	297.04
307.88 K	404.2
315.82 K	503.41
324.78 K	633
328.93 K	704.67
337.82 K	871.92
348.26 K	1100.8
357.33 K	1343.9
364.25 K	1545.1
371.52 K	1784.7
380.19 K	2094.5
386.12 K	2332.7
